PMC9437973 (Journal of medicinal chemistry, 2021)
“Also recorded” adds a separate entry of the source.

Legend:
GluN1/2A = conditions: cited from earlier work
GluN1/2D = conditions: cited from earlier work
GluN1/2B = conditions: cited from earlier work
GluN1/2C = conditions: cited from earlier work
GluN1/2B NMDA receptor = GluN1/2B NMDA receptor (Rattus norvegicus, UniProt P35439); type: cell-based; conditions: for current response to analog alone at GluN1/2B: 10 μM analog, continuous presence of 300 μM L-Glu
GluN1/2D NMDA receptor = GluN1/2D NMDA receptor (Rattus norvegicus, UniProt P35439); type: cell-based
[1] = biological target: Gly binding site in GluN1/2B receptors (Rattus norvegicus, UniProt P35439+Q00960); experiment: Inhibition of Gly responses at recombinant GluN1/2B; type: cell-based
GluN1^FATL/3A receptors = GluN1^FATL/3A receptors (Rattus norvegicus, UniProt Q9R1M7); experiment: Two-electrode voltage-clamp at GluN1^FATL/3A receptors; type: cell-based; conditions: for activation of current responses at GluN1^FATL/3A: 10 μM analog alone; for inhibition of responses to Gly at GluN1^FATL/3A: 10 μM analog in presence of Gly
GluN1^FATL/3B receptors = GluN1^FATL/3B receptors (Rattus norvegicus, UniProt Q8VHN2); experiment: Two-electrode voltage-clamp at GluN1^FATL/3B receptors; type: cell-based; conditions: for activation of current responses at GluN1^FATL/3B: 10 μM analog alone; for inhibition of responses to Gly at GluN1^FATL/3B: 10 μM analog in presence of Gly
GluN1/2A-V783L = GluN1/2A-V783L (Rattus norvegicus, UniProt P35439); experiment: Two-electrode voltage-clamp at mutated GluN1/2A-V783L receptors; type: cell-based; conditions: 10 μM analog; 300 μM L-Glu
GluN1/2B-F784V = GluN1/2B-F784V (Rattus norvegicus, UniProt P35439); experiment: Two-electrode voltage-clamp at mutated GluN1/2B-F784V receptors; type: cell-based; conditions: 10 μM analog; 300 μM L-Glu
GluN1/2A NMDA receptor = GluN1/2A NMDA receptor (Rattus norvegicus, UniProt P35439); type: cell-based
GluN1/2B-F784L = GluN1/2B-F784L (Rattus norvegicus, UniProt P35439); experiment: Two-electrode voltage-clamp at mutated GluN1/2B-F784L receptors; type: cell-based; conditions: 10 μM analog; 300 μM L-Glu
GluN1/2A-V783F = GluN1/2A-V783F (Rattus norvegicus, UniProt P35439); experiment: Two-electrode voltage-clamp at mutated GluN1/2A-V783F receptors; type: cell-based; conditions: 10 μM analog; 300 μM L-Glu
[2] = maximal response compared to Gly

Sequence of GluN1^FATL/3A receptors (Q9R1M7 24-1115 isoform Q9R1M7-2 limits assumed, other chains not shown): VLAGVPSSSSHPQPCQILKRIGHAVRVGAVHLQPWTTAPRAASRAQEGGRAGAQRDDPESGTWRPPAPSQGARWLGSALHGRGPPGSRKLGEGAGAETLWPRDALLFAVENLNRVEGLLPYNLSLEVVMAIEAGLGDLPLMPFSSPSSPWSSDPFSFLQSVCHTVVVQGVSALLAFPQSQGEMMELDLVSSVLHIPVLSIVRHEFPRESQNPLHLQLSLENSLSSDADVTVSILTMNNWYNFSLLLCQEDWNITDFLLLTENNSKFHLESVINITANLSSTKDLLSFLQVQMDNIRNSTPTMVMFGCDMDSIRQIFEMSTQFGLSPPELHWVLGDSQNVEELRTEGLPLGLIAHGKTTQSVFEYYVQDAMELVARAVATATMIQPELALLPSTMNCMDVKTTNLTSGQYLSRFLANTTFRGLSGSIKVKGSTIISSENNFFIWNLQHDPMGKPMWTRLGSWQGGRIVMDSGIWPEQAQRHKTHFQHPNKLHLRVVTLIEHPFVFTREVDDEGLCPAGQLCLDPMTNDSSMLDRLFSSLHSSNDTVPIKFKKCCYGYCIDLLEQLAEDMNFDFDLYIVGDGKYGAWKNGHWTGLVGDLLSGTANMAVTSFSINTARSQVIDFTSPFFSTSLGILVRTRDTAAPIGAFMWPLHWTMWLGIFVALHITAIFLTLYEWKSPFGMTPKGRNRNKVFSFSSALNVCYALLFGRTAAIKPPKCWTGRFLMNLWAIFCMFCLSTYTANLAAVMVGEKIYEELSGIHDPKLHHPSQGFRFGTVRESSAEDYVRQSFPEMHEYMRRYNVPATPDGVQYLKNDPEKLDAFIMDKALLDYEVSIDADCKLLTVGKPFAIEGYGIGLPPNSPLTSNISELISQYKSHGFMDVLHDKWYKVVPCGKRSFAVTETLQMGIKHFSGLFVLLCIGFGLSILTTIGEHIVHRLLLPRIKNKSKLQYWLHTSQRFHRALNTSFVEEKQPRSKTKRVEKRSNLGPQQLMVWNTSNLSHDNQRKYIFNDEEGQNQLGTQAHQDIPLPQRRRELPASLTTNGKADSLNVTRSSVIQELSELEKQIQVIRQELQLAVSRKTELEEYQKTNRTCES
Sequence of GluN1^FATL/3B receptors (Q8VHN2 25-1002, other chains not shown): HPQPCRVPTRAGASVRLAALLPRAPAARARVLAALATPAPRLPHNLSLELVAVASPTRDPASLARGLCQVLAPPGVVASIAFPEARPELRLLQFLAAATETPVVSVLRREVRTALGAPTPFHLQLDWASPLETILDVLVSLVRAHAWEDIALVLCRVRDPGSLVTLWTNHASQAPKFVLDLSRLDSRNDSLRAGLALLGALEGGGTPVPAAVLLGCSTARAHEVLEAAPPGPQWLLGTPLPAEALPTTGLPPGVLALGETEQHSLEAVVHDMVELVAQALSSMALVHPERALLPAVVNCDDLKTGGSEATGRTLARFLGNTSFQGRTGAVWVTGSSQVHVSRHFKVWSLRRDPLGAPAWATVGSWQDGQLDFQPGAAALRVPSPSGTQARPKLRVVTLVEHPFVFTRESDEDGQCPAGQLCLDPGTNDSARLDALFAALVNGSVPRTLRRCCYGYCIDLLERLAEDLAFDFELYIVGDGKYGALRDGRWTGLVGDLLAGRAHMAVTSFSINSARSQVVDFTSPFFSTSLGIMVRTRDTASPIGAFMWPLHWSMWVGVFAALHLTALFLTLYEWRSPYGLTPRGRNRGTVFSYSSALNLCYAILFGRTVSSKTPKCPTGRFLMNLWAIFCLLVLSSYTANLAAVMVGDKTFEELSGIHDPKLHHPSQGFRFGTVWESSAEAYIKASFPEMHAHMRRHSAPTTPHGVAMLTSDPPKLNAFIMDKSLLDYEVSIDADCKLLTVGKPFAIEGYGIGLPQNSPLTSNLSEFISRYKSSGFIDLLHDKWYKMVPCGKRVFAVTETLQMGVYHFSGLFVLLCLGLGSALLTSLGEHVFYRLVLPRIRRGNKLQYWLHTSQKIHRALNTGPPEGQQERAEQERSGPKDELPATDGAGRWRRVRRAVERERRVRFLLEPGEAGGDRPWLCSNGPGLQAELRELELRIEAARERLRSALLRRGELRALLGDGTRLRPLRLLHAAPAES

Row | Structure (SMILES) | agonist activity at GluN1/2B (in words) (GluN1/2B NMDA receptor) | agonist activity at GluN1/2D (in words) (GluN1/2D NMDA receptor) | Ki [1] [nM] | activation of current responses at GluN1^FATL/3A (GluN1^FATL/3A receptors) | inhibition of responses to Gly at GluN1^FATL/3A (GluN1^FATL/3A receptors) | current response to analog alone at GluN1/2B (GluN1/2B NMDA receptor) | activation of current responses at GluN1^FATL/3B (GluN1^FATL/3B receptors) | inhibition of responses to Gly at GluN1^FATL/3B (GluN1^FATL/3B receptors) | further results
1 | CCc1ccccc1-c1cccc2[nH]c(C(=O)NC[C@@H](N)C(=O)O)cc12 [AICP, (R)-2-Amino-3-(4-(2-ethylphenyl)-1H-indole-2-carboxamido)propanoic acid] |  |  |  |  |  |  |  |  | Rmax at GluN1/2A (GluN1/2A; [2]): 100%; EC50 (GluN1/2A; read-out: EC50 at GluN1/2A, full agonism): 66 nM; Rmax at GluN1/2D (GluN1/2D; [2]): 27%; EC50 (GluN1/2D; read-out: EC50 at GluN1/2D, partial agonist): 25 nM; Rmax at GluN1/2B (GluN1/2B; [2]): 10%; EC50 (GluN1/2B; read-out: EC50 at GluN1/2B, partial agonist): 25 nM; Rmax at GluN1/2C (GluN1/2C; [2]): 353%; EC50 (GluN1/2C; read-out: EC50 at GluN1/2C, superagonism): 1.7 nM
2 | N[C@H](CNC(=O)c1ccc(-c2ccccc2C(F)(F)F)o1)C(=O)O [Compound 8d, (R)-2-Amino-3-(5-(2-(trifluoromethyl)phenyl)furan-2-carboxamido)propanoic acid] | no agonist activity | no agonist activity |  |  |  |  |  |  | 
3 | CCc1ccccc1-c1ccc(C(=O)NC[C@@H](N)C(=O)O)o1 [Compound 8h, (R)-2-Amino-3-(5-(2-ethylphenyl)furan-2-carboxamido)propanoic acid] | no agonist activity |  | ~100 | No responses; also recorded: did not activate current responses | did not inhibit responses to Gly | unable to activate any current responses; also recorded: No responses | No responses; also recorded: did not activate current responses | did not inhibit responses to Gly | 
4 | N[C@H](CNC(=O)c1ccc(-c2ccc(Cl)cc2[N+](=O)[O-])o1)C(=O)O [Compound 8p, (R)-2-amino-3-(5-(4-chloro-2-nitrophenyl)furan-2-carboxamido)propanoic acid] | virtually no agonist activity | virtually no agonist activity | ~100 | No responses; also recorded: did not activate current responses | did not inhibit responses to Gly | unable to activate any current responses; also recorded: No responses | No responses; also recorded: did not activate current responses | did not inhibit responses to Gly | maximal response relative to Gly at GluN1/2A-V783L versus wild type (GluN1/2A-V783L): reduced the maximal response; maximal response relative to Gly at GluN1/2B-F784V versus wild type (GluN1/2B-F784V): did not significantly increase the maximal response; agonist activity at GluN1/2A (in words) (GluN1/2A NMDA receptor): virtually no agonist activity; maximal response relative to Gly at GluN1/2B-F784L versus wild type (GluN1/2B-F784L): did not significantly increase the maximal response; maximal response relative to Gly at GluN1/2A-V783F versus wild type (GluN1/2A-V783F): reduced the maximal response
